The assay deals with T1, Androgen Receptor (AR) (Homo sapiens, UniProt P10275, T878A).
T1 construct: cell based immuno-fluorescence assay using the LNCaP prostate epithelial cell line; endogenous in cells; host or cells: LNCaP clone FGC (ATCC CRL-1740)
T1 sequence (P10275 1-920 T878A): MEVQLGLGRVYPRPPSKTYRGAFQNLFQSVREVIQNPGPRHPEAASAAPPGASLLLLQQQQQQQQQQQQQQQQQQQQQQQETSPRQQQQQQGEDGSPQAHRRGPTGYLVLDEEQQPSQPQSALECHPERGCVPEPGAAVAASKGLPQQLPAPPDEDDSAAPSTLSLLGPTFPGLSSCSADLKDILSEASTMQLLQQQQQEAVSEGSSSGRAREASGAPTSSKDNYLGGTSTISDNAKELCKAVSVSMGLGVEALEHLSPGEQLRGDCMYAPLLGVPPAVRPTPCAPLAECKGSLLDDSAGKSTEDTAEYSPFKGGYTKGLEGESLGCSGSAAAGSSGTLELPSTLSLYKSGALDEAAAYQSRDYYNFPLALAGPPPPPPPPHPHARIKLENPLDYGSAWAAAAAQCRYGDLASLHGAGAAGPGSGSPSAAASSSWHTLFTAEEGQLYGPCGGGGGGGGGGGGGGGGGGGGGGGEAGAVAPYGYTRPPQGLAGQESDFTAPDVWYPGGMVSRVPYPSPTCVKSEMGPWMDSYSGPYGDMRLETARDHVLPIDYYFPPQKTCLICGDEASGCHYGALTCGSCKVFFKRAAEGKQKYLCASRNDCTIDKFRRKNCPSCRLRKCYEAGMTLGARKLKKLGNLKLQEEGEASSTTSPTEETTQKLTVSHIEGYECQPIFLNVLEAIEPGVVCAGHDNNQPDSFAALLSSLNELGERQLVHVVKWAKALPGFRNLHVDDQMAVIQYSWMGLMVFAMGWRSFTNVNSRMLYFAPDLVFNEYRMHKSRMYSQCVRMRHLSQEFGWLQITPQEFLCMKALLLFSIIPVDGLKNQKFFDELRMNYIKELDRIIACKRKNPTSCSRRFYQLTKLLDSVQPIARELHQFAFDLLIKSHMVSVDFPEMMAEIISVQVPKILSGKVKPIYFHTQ
As to the kind of experiment: LNCaP Androgen Receptor Down-regulation Cell Assay (immunofluorescence end point). It is filed as cell-based. The conditions noted are these: LNCaP prostate carcinoma cells, compound incubation 20-22 hours, 50% reduction of the AR signal; read-out: Androgen Receptor Down-regulation Assay (a) IC50/μM. In outline: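 LNCaP cells in medium with 5% charcoal-stripped FBS were plated overnight, then treated with a compound dilution series for 20-22 h at 37° C. After fixation, permeabilisation and immunostaining, AR-associated green fluorescence was quantified by laser-scanning microplate cytometry; AR down-regulation expressed as IC50 from fitted dose-response curves.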
Consider `Fc1ccc(OC2CCN(c3ccc4nnc(C(F)(F)F)n4n3)CC2)cc1` [Example 625], for which the DC50 is 1.4 µM.

With `FC(F)(F)c1cccc(OC2CCN(c3ccc4nnc(C(F)(F)F)n4n3)CC2)c1` [Example 626], the DC50 worked out at 1.1 µM. Take `N#Cc1ccc(OC2CCN(c3ccc4nnc(C(F)(F)F)n4n3)CC2)cc1` [Example 627]: the DC50 was 1.7 µM. For the molecule `N#Cc1ccc(OC2CCN(c3ccc4nnc(C(F)(F)F)n4n3)CC2)nc1` [Example 628], the DC50 was 2.7 µM. Regarding `CN(CCO)C(=O)c1ccc(C2CCN(c3ccc4nnc(C(F)(F)F)n4n3)CC2)cc1` [Example 630], the DC50 was found to be 2.4 µM. `O=C(NCCN1CCCC1)c1ccc(C2CCN(c3ccc4nnc(C(F)(F)F)n4n3)CC2)cc1` [Example 631]: the DC50 was 1.1 µM. Take `COCCNC(=O)c1ccc(C2CCN(c3ccc4nnc(C(F)(F)F)n4n3)CC2)cc1` [Example 633]: the DC50 was found to be 1.9 µM.

Regarding `CN(C)C(=O)c1ccc(C2CCN(c3ccc4nnc(C(F)(F)F)n4n3)CC2)cc1` [Example 634], the DC50 is 1.1 µM. Regarding `O=C(c1ccc(C2CCN(c3ccc4nnc(C(F)(F)F)n4n3)CC2)cc1)N1CCOCC1` [Example 635], the DC50 stood at 2.9 µM. In the case of `O=C(c1ccc(C2CCN(c3ccc4nnc(C(F)(F)F)n4n3)CC2)cc1)N1CCNCC1` [Example 636], the DC50 worked out at 20 µM. With `CCNC(=O)c1ccc(C2CCN(c3ccc4nnc(C(F)(F)F)n4n3)CC2)cc1` [Example 637], the DC50 came to 1.8 µM.

In the case of `O=C(NCCN1CCOCC1)c1ccc(C2CCN(c3ccc4nnc(C(F)(F)F)n4n3)CC2)cc1` [Example 638, N-(2-morpholin-4-ylethyl)-4-[1-[3-(trifluoromethyl)[1,2,4]triazolo[4,3-b]pyridazin-6-yl]piperidin-4-yl]benzamide], the DC50 stood at 0.9 µM. As to `Cc1cc(CNC(=O)c2ccc(C3CCN(c4ccc5nnc(C(F)(F)F)n5n4)CC3)cc2)no1` [Example 640], the DC50 was determined as 0.92 µM.

In the case of `CN1CCC(NC(=O)c2ccc(C3CCN(c4ccc5nnc(C(F)(F)F)n5n4)CC3)cc2)CC1` [Example 641], the DC50 was 1.4 µM. Take `CN1CCN(CCNC(=O)c2ccc(C3CCN(c4ccc5nnc(C(F)(F)F)n5n4)CC3)cc2)CC1` [Example 642]: the DC50 came to 1.4 µM.

With `CN(CCO)C(=O)c1cccc(C2CCN(c3ccc4nnc(C(F)(F)F)n4n3)CC2)c1` [Example 643], the DC50 turned out to be 6 µM. In the case of `O=C(NCCN1CCCC1)c1cccc(C2CCN(c3ccc4nnc(C(F)(F)F)n4n3)CC2)c1` [Example 644], the DC50 was found to be 1.5 µM. The result for `CN1CCN(C(=O)c2cccc(C3CCN(c4ccc5nnc(C(F)(F)F)n5n4)CC3)c2)CC1` [Example 645] reads 2.3 µM; that for `O=C(c1cccc(C2CCN(c3ccc4nnc(C(F)(F)F)n4n3)CC2)c1)N1CCNCC1` [Example 646], 6.1 µM; that for `CN(C)C(=O)c1cccc(C2CCN(c3ccc4nnc(C(F)(F)F)n4n3)CC2)c1` [Example 647], 1.7 µM. `O=C(c1cccc(C2CCN(c3ccc4nnc(C(F)(F)F)n4n3)CC2)c1)N1CCOCC1` [Example 648]: the DC50 came to 2.1 µM. `CNC(=O)c1cccc(C2CCN(c3ccc4nnc(C(F)(F)F)n4n3)CC2)c1` [Example 649]: the DC50 was 2.3 µM. Regarding `CN1CCC(NC(=O)c2cccc(C3CCN(c4ccc5nnc(C(F)(F)F)n5n4)CC3)c2)CC1` [Example 651], the DC50 turned out to be 1.9 µM. For the molecule `FC(F)(F)c1ccccc1OC1CCN(c2ccc3nnc(C(F)(F)F)n3n2)CC1` [Example 653], the DC50 was 1 µM. With `N#Cc1ccccc1OC1CCN(c2ccc3nnc(C(F)(F)F)n3n2)CC1` [Example 654], the DC50 was determined as 2.6 µM. In the case of `CC(=O)Nc1cccc(C2CCN(c3ccc4nnc(C(F)(F)F)n4n3)CC2)c1` [Example 655, N-[3-[1-[3-(trifluoromethyl)[1,2,4]triazolo[4,3-b]pyridazin-6-yl]piperidin-4-yl]phenyl]acetamide], the DC50 was determined as 1.1 µM.

Regarding `CN1CCN(CCCC(=O)Nc2cccc(C3CCN(c4ccc5nnc(C(F)(F)F)n5n4)CC3)c2)CC1` [Example 659, 4-(4-methylpiperazin-1-yl)-N-[3-[1-[3-(trifluoromethyl)-[1,2,4]triazolo[4,3-b]pyridazin-6-yl]piperidin-4-yl]phenyl]butanamide], the DC50 turned out to be 1 µM. Then `O=C(CCCN1CCCC1)Nc1cccc(C2CCN(c3ccc4nnc(C(F)(F)F)n4n3)CC2)c1` [Example 660], with 0.63 µM. On to `O=C(CCCN1CCOCC1)Nc1cccc(C2CCN(c3ccc4nnc(C(F)(F)F)n4n3)CC2)c1` [Example 661], for which the DC50 is 0.65 µM. Then `COCCCC(=O)Nc1cccc(C2CCN(c3ccc4nnc(C(F)(F)F)n4n3)CC2)c1` [Example 662, 4-methoxy-N-[3-[1-(3-(trifluoromethyl)-[1,2,4]triazolo[4,3-b]pyridazin-6-yl)piperidin-4-yl]phenyl]butanamide], with 5.4 µM.

For the molecule `CN1CCC(C(=O)Nc2ccc(C3CCN(c4ccc5nnc(C(F)(F)F)n5n4)CC3)cc2)CC1` [Example 663], the DC50 is 2.7 µM. As for `COCC(=O)Nc1ccc(C2CCN(c3ccc4nnc(C(F)(F)F)n4n3)CC2)cc1` [Example 664], the DC50 is 3.6 µM. Take `CN1CCN(CCCC(=O)Nc2ccc(C3CCN(c4ccc5nnc(C(F)(F)F)n5n4)CC3)cc2)CC1` [Example 666]: the DC50 turned out to be 0.94 µM. Then `O=C(CCCN1CCCC1)Nc1ccc(C2CCN(c3ccc4nnc(C(F)(F)F)n4n3)CC2)cc1` [Example 667], with 1 µM. With `O=C(CCCN1CCOCC1)Nc1ccc(C2CCN(c3ccc4nnc(C(F)(F)F)n4n3)CC2)cc1` [Example 668], the DC50 stood at 1.1 µM. As for `COCCCC(=O)Nc1ccc(C2CCN(c3ccc4nnc(C(F)(F)F)n4n3)CC2)cc1` [Example 669], the DC50 worked out at 0.6 µM. The result for `CN(C)CCCOc1cccc(C2CCN(c3ccc4nnc(C(F)(F)F)n4n3)CC2)c1` [Example 670] reads 0.67 µM; that for `FC(F)(F)c1nnc2ccc(N3CCC(c4cccc(OCCN5CCCC5)c4)CC3)nn12` [Example 671], 1.6 µM; that for `FC(F)(F)c1nnc2ccc(N3CCC(c4cccc(OCCN5CCNCC5)c4)CC3)nn12` [Example 672], 0.58 µM. For `FC(F)(F)c1nnc2ccc(N3CCC(c4cccc(OCCCN5CCNCC5)c4)CC3)nn12` [Example 673], the DC50 is 0.73 µM.

As to `Cc1cc(COc2cccc(C3CCN(c4ccc5nnc(C(F)(F)F)n5n4)CC3)c2)no1` [Example 674], the DC50 came out at 1.1 µM.

As to `CN(C)CCOc1cccc(C2CCN(c3ccc4nnc(C(F)(F)F)n4n3)CC2)c1` [Example 675], the DC50 stood at 1.5 µM.

On to `FC(F)(F)c1nnc2ccc(N3CCC(c4cccc(OCCN5CCOCC5)c4)CC3)nn12` [Example 676], for which the DC50 is 0.56 µM. The result for `CN1CCC(Oc2cccc(C3CCN(c4ccc5nnc(C(F)(F)F)n5n4)CC3)c2)CC1` [Example 677] reads 4.5 µM; that for `FC(F)(F)c1nnc2ccc(N3CCC(c4cccc(OCc5cnco5)c4)CC3)nn12` [Example 680], 0.6 µM. As for `Cn1nccc1CCOc1cccc(C2CCN(c3ccc4nnc(C(F)(F)F)n4n3)CC2)c1` [Example 682], the DC50 stood at 0.58 µM. Turning to `COCCOc1cccc(C2CCN(c3ccc4nnc(C(F)(F)F)n4n3)CC2)c1` [Example 684], the DC50 came out at 0.69 µM.

Source of the values: patent US8003649B2 (AstraZeneca AB, priority 2007, dated 2011).
